From PubChem BioAssay (NCI)
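48-hour exposure; five concentrations; linearly interpolated endpoints. TGI: total growth inhibition.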

Key:
Assay in all cases: DTP human tumour cell line panel, 48 h
DLD-1 colon = tested on: DLD-1 colon
OVCAR-4 ovarian = tested on: OVCAR-4 ovarian
HOP-92 NSCLC = tested on: HOP-92 NSCLC
MDA-N = tested on: MDA-N
CCRF-CEM leukemia = tested on: CCRF-CEM leukemia
PC-3 prostate = tested on: PC-3 prostate
K-562 leukemia = tested on: K-562 leukemia
DMS 114 small cell lung = tested on: DMS 114 small cell lung
LXFL 529 NSCLC = tested on: LXFL 529 NSCLC
SNB-75 CNS = tested on: SNB-75 CNS
IGROV1 ovarian = tested on: IGROV1 ovarian
786-0 renal = tested on: 786-0 renal
OVCAR-8 ovarian = tested on: OVCAR-8 ovarian
RPMI-8226 leukemia = tested on: RPMI-8226 leukemia
SN12C renal = tested on: SN12C renal
HCC-2998 colon = tested on: HCC-2998 colon
UO-31 renal = tested on: UO-31 renal
SK-OV-3 ovarian = tested on: SK-OV-3 ovarian
BT-549 breast = tested on: BT-549 breast
SNB-78 CNS = tested on: SNB-78 CNS
UACC-62 melanoma = tested on: UACC-62 melanoma
HL-60(TB) leukemia = tested on: HL-60(TB) leukemia
SK-MEL-5 melanoma = tested on: SK-MEL-5 melanoma
OVCAR-5 ovarian = tested on: OVCAR-5 ovarian
T-47D breast = tested on: T-47D breast
MCF7 breast = tested on: MCF7 breast
NCI/ADR-RES ovarian = tested on: NCI/ADR-RES ovarian
NCI-H460 lung = tested on: NCI-H460 lung
SF-268 CNS = tested on: SF-268 CNS
MALME-3M melanoma = tested on: MALME-3M melanoma
ACHN renal = tested on: ACHN renal
NCI-H23 lung = tested on: NCI-H23 lung
DU-145 prostate = tested on: DU-145 prostate
U251 CNS = tested on: U251 CNS
MDA-MB-231 breast = tested on: MDA-MB-231 breast
EKVX NSCLC = tested on: EKVX NSCLC
UACC-257 melanoma = tested on: UACC-257 melanoma
NCI-H522 lung = tested on: NCI-H522 lung
SF-295 CNS = tested on: SF-295 CNS
CAKI-1 renal = tested on: CAKI-1 renal
M14 melanoma = tested on: M14 melanoma
HCT-116 colon = tested on: HCT-116 colon
COLO 205 colon = tested on: COLO 205 colon
KM12 colon = tested on: KM12 colon
RXF 393 renal = tested on: RXF 393 renal
TK-10 renal = tested on: TK-10 renal
HCT-15 colon = tested on: HCT-15 colon
M19-MEL melanoma = tested on: M19-MEL melanoma
SF-539 CNS = tested on: SF-539 CNS
HS 578T breast = tested on: HS 578T breast
LOX IMVI melanoma = tested on: LOX IMVI melanoma
A549 NSCLC = tested on: A549 NSCLC
SK-MEL-2 melanoma = tested on: SK-MEL-2 melanoma
MOLT-4 leukemia = tested on: MOLT-4 leukemia
DMS 273 small cell lung = tested on: DMS 273 small cell lung
HT29 colon = tested on: HT29 colon
MDA-MB-435 = tested on: MDA-MB-435
OVCAR-3 ovarian = tested on: OVCAR-3 ovarian
NCI-H226 lung = tested on: NCI-H226 lung
HOP-62 NSCLC = tested on: HOP-62 NSCLC
SK-MEL-28 melanoma = tested on: SK-MEL-28 melanoma
KM20L2 colon = tested on: KM20L2 colon
A498 renal = tested on: A498 renal
RXF-631 renal = tested on: RXF-631 renal
SW-620 colon = tested on: SW-620 colon
SNB-19 CNS = tested on: SNB-19 CNS
SR leukemia = tested on: SR leukemia
XF 498 CNS = tested on: XF 498 CNS
HOP-18 NSCLC = tested on: HOP-18 NSCLC

COC1=CC(=O)c2c(ccc3ncnc(N)c23)C1=O
TGI (DLD-1 colon): 4.44 µM
TGI (OVCAR-4 ovarian): 1.28 µM
TGI (HOP-92 NSCLC): 4 µM
TGI (MDA-N): 0.889 µM
TGI (CCRF-CEM leukemia): 1.95 µM
TGI (PC-3 prostate): 6.53 µM
TGI (K-562 leukemia): 1.58 µM
TGI (DMS 114 small cell lung): 3.43 µM
TGI (LXFL 529 NSCLC): 3.2 µM
TGI (SNB-75 CNS): 6.62 µM
TGI (IGROV1 ovarian): 3.41 µM
TGI (786-0 renal): 3.35 µM
TGI (OVCAR-8 ovarian): 7.59 µM
TGI (RPMI-8226 leukemia): 3.62 µM
TGI (SN12C renal): 3.42 µM
TGI (HCC-2998 colon): 15.1 µM
TGI (UO-31 renal): 5.09 µM
TGI (SK-OV-3 ovarian): 16.3 µM
TGI (BT-549 breast): 3.2 µM
TGI (SNB-78 CNS): 4.89 µM
TGI (UACC-62 melanoma): 3.42 µM
TGI (HL-60(TB) leukemia): 1.49 µM
TGI (SK-MEL-5 melanoma): 3.12 µM
TGI (OVCAR-5 ovarian): 3.81 µM
TGI (T-47D breast): 3.42 µM
TGI (MCF7 breast): 4.12 µM
TGI (NCI/ADR-RES ovarian): 6.39 µM
TGI (NCI-H460 lung): 12.6 µM
TGI (SF-268 CNS): 6.72 µM
TGI (MALME-3M melanoma): 5.43 µM
TGI (ACHN renal): 3.16 µM
TGI (NCI-H23 lung): 3.76 µM
TGI (DU-145 prostate): 3.34 µM
TGI (U251 CNS): 3.39 µM
TGI (MDA-MB-231 breast): 4.8 µM
TGI (EKVX NSCLC): 4.03 µM
TGI (UACC-257 melanoma): 3.69 µM
TGI (NCI-H522 lung): 5.62 µM
TGI (SF-295 CNS): 6.76 µM
TGI (CAKI-1 renal): 3.27 µM
TGI (M14 melanoma): 3.38 µM
TGI (HCT-116 colon): 3.33 µM
TGI (COLO 205 colon): 6.77 µM
TGI (KM12 colon): 11.3 µM
TGI (RXF 393 renal): 3.3 µM
TGI (TK-10 renal): 8.75 µM
TGI (HCT-15 colon): 4.13 µM
TGI (M19-MEL melanoma): 3.14 µM
TGI (SF-539 CNS): 3.41 µM
TGI (HS 578T breast): 7.52 µM
TGI (LOX IMVI melanoma): 2.68 µM
TGI (A549 NSCLC): 8.75 µM
TGI (SK-MEL-2 melanoma): 7.08 µM
TGI (MOLT-4 leukemia): 1.5 µM
TGI (DMS 273 small cell lung): 10.7 µM
TGI (HT29 colon): 4.44 µM
TGI (MDA-MB-435): 0.646 µM
TGI (OVCAR-3 ovarian): 3.03 µM
TGI (NCI-H226 lung): 4.6 µM
TGI (HOP-62 NSCLC): 6.54 µM
TGI (SK-MEL-28 melanoma): 4.94 µM
TGI (KM20L2 colon): 34.7 µM
TGI (A498 renal): 3.9 µM
TGI (RXF-631 renal): 16.4 µM
TGI (SW-620 colon): 4.03 µM
TGI (SNB-19 CNS): 5.47 µM
TGI (SR leukemia): 0.631 µM

CCNCCCCNCCCCNCCCCNCCCCNCC
TGI (DLD-1 colon): > 100 µM
TGI (OVCAR-4 ovarian): > 100 µM
TGI (HOP-92 NSCLC): > 100 µM
TGI (MDA-N): 61.8 µM
TGI (CCRF-CEM leukemia): > 100 µM
TGI (PC-3 prostate): > 100 µM
TGI (K-562 leukemia): > 100 µM
TGI (DMS 114 small cell lung): > 100 µM
TGI (LXFL 529 NSCLC): > 100 µM
TGI (SNB-75 CNS): 78.4 µM
TGI (IGROV1 ovarian): > 100 µM
TGI (786-0 renal): 98.6 µM
TGI (OVCAR-8 ovarian): > 100 µM
TGI (RPMI-8226 leukemia): > 100 µM
TGI (SN12C renal): > 100 µM
TGI (HCC-2998 colon): > 100 µM
TGI (UO-31 renal): > 100 µM
TGI (SK-OV-3 ovarian): > 100 µM
TGI (BT-549 breast): > 100 µM
TGI (SNB-78 CNS): > 100 µM
TGI (UACC-62 melanoma): 43.8 µM
TGI (HL-60(TB) leukemia): > 100 µM
TGI (SK-MEL-5 melanoma): > 100 µM
TGI (OVCAR-5 ovarian): > 100 µM
TGI (T-47D breast): > 100 µM
TGI (MCF7 breast): > 100 µM
TGI (NCI/ADR-RES ovarian): > 100 µM
TGI (NCI-H460 lung): > 100 µM
TGI (SF-268 CNS): > 77.7 µM
TGI (MALME-3M melanoma): 31.5 µM
TGI (ACHN renal): > 100 µM
TGI (NCI-H23 lung): > 100 µM
TGI (DU-145 prostate): > 100 µM
TGI (U251 CNS): > 100 µM
TGI (MDA-MB-231 breast): > 100 µM
TGI (EKVX NSCLC): > 100 µM
TGI (UACC-257 melanoma): 81.3 µM
TGI (NCI-H522 lung): > 100 µM
TGI (XF 498 CNS): > 100 µM
TGI (SF-295 CNS): > 100 µM
TGI (CAKI-1 renal): > 73.1 µM
TGI (M14 melanoma): > 100 µM
TGI (HCT-116 colon): > 100 µM
TGI (COLO 205 colon): > 100 µM
TGI (KM12 colon): > 100 µM
TGI (RXF 393 renal): > 52.6 µM
TGI (TK-10 renal): > 56.2 µM
TGI (HCT-15 colon): > 100 µM
TGI (M19-MEL melanoma): > 100 µM
TGI (SF-539 CNS): > 100 µM
TGI (HS 578T breast): 26.3 µM
TGI (LOX IMVI melanoma): > 100 µM
TGI (A549 NSCLC): > 100 µM
TGI (SK-MEL-2 melanoma): > 100 µM
TGI (MOLT-4 leukemia): > 100 µM
TGI (DMS 273 small cell lung): > 100 µM
TGI (HT29 colon): > 100 µM
TGI (HOP-18 NSCLC): > 100 µM
TGI (MDA-MB-435): 38.6 µM
TGI (OVCAR-3 ovarian): > 100 µM
TGI (NCI-H226 lung): > 100 µM
TGI (HOP-62 NSCLC): > 100 µM
TGI (SK-MEL-28 melanoma): 52.6 µM
TGI (KM20L2 colon): > 100 µM
TGI (A498 renal): > 100 µM
TGI (SW-620 colon): > 100 µM
TGI (SNB-19 CNS): > 100 µM
TGI (SR leukemia): > 100 µM
